Data reported in the NIST ThermoML archive (doi:10.1021/je025630q).

Experiment: compressibility factor (dimensionless); xn = mol fraction of the nth substance listed
Details: Gas, Burnett expansion method

CF [fluoromethane] + O=C=O
Details | compressibility factor
303.15 K, 126.9 kPa, x2 = 0.283 | 0.995
303.15 K, 139.3 kPa, x2 = 0.402 | 0.9955
303.15 K, 155.9 kPa, x2 = 0.59 | 0.9951
303.15 K, 174.7 kPa, x2 = 0.798 | 0.9946
303.15 K, 188.9 kPa, x2 = 0.283 | 0.9896
303.15 K, 207.3 kPa, x2 = 0.402 | 0.9896
303.15 K, 231.9 kPa, x2 = 0.59 | 0.9892
303.15 K, 259.9 kPa, x2 = 0.798 | 0.9886
303.15 K, 280.7 kPa, x2 = 0.283 | 0.9823
303.15 K, 308 kPa, x2 = 0.402 | 0.9821
303.15 K, 344.5 kPa, x2 = 0.59 | 0.9815
303.15 K, 386 kPa, x2 = 0.798 | 0.9807
303.15 K, 415.8 kPa, x2 = 0.283 | 0.9721
303.15 K, 456.1 kPa, x2 = 0.402 | 0.9715
303.15 K, 510 kPa, x2 = 0.59 | 0.9708
303.15 K, 571.5 kPa, x2 = 0.798 | 0.97
303.15 K, 613.1 kPa, x2 = 0.283 | 0.9576
303.15 K, 672.2 kPa, x2 = 0.402 | 0.9564
303.15 K, 751.4 kPa, x2 = 0.59 | 0.9555
303.15 K, 842 kPa, x2 = 0.798 | 0.9547
303.15 K, 897.8 kPa, x2 = 0.283 | 0.9368
303.15 K, 983.5 kPa, x2 = 0.402 | 0.9349
303.15 K, 1099.1 kPa, x2 = 0.59 | 0.9337
303.15 K, 1231.1 kPa, x2 = 0.798 | 0.9326
303.15 K, 1300.8 kPa, x2 = 0.283 | 0.9066
303.15 K, 1423.2 kPa, x2 = 0.402 | 0.9038
303.15 K, 1589.6 kPa, x2 = 0.59 | 0.9021
303.15 K, 1779.6 kPa, x2 = 0.798 | 0.9006
303.15 K, 1854.5 kPa, x2 = 0.283 | 0.8635
303.15 K, 2025.1 kPa, x2 = 0.402 | 0.8591
303.15 K, 2259.3 kPa, x2 = 0.59 | 0.8566
303.15 K, 2527 kPa, x2 = 0.798 | 0.8543
303.15 K, 2578.9 kPa, x2 = 0.283 | 0.8022
303.15 K, 2808.4 kPa, x2 = 0.402 | 0.7959
303.15 K, 3127.5 kPa, x2 = 0.59 | 0.7921
303.15 K, 3455.9 kPa, x2 = 0.283 | 0.7182
303.15 K, 3491.8 kPa, x2 = 0.798 | 0.7886
303.15 K, 3745.5 kPa, x2 = 0.402 | 0.7091
303.15 K, 4156.5 kPa, x2 = 0.59 | 0.7033
303.15 K, 4628.3 kPa, x2 = 0.798 | 0.6983
313.15 K, 128.9 kPa, x2 = 0.206 | 0.9928
313.15 K, 139.2 kPa, x2 = 0.778 | 1
313.15 K, 156.2 kPa, x2 = 0.593 | 0.9925
313.15 K, 175 kPa, x2 = 0.408 | 0.9921
313.15 K, 192.3 kPa, x2 = 0.206 | 0.9894
313.15 K, 207.3 kPa, x2 = 0.778 | 0.9946
313.15 K, 233 kPa, x2 = 0.593 | 0.989
313.15 K, 260.7 kPa, x2 = 0.408 | 0.9874
313.15 K, 286.2 kPa, x2 = 0.206 | 0.9837
313.15 K, 308.2 kPa, x2 = 0.778 | 0.9881
313.15 K, 346.7 kPa, x2 = 0.593 | 0.9829
313.15 K, 387.2 kPa, x2 = 0.408 | 0.9799
313.15 K, 424.5 kPa, x2 = 0.206 | 0.9746
313.15 K, 457.5 kPa, x2 = 0.778 | 0.9798
313.15 K, 514.3 kPa, x2 = 0.593 | 0.974
313.15 K, 573.2 kPa, x2 = 0.408 | 0.9689
313.15 K, 626.8 kPa, x2 = 0.206 | 0.9613
313.15 K, 676.8 kPa, x2 = 0.778 | 0.9683
313.15 K, 759.4 kPa, x2 = 0.593 | 0.9608
313.15 K, 843.8 kPa, x2 = 0.408 | 0.9529
313.15 K, 919.1 kPa, x2 = 0.206 | 0.9417
313.15 K, 996 kPa, x2 = 0.778 | 0.9519
313.15 K, 1113.9 kPa, x2 = 0.593 | 0.9415
313.15 K, 1231.8 kPa, x2 = 0.408 | 0.9293
313.15 K, 1334.2 kPa, x2 = 0.206 | 0.9132
313.15 K, 1453.8 kPa, x2 = 0.778 | 0.9282
313.15 K, 1617 kPa, x2 = 0.593 | 0.913
313.15 K, 1775.9 kPa, x2 = 0.408 | 0.895
313.15 K, 1907.6 kPa, x2 = 0.206 | 0.8722
313.15 K, 2096.6 kPa, x2 = 0.778 | 0.8943
313.15 K, 2311.9 kPa, x2 = 0.593 | 0.8721
313.15 K, 2512.5 kPa, x2 = 0.408 | 0.846
313.15 K, 2665.8 kPa, x2 = 0.206 | 0.8143
313.15 K, 2967.7 kPa, x2 = 0.778 | 0.8457
313.15 K, 3229.5 kPa, x2 = 0.593 | 0.8138
313.15 K, 3455.2 kPa, x2 = 0.408 | 0.7772
313.15 K, 3600.8 kPa, x2 = 0.206 | 0.7348
313.15 K, 4083.3 kPa, x2 = 0.778 | 0.7773
313.15 K, 4357.3 kPa, x2 = 0.593 | 0.7335
313.15 K, 4556.4 kPa, x2 = 0.408 | 0.6847
313.15 K, 4622.8 kPa, x2 = 0.206 | 0.6302
313.15 K, 5382.3 kPa, x2 = 0.778 | 0.6845
313.15 K, 5581 kPa, x2 = 0.593 | 0.6277
313.15 K, 5645.6 kPa, x2 = 0.408 | 0.5668
323.15 K, 133.2 kPa, x2 = 0.378 | 0.9948
323.15 K, 137 kPa, x2 = 0.791 | 0.995
323.15 K, 142.6 kPa, x2 = 0.619 | 0.9967
323.15 K, 156.6 kPa, x2 = 0.189 | 0.9918
323.15 K, 198.7 kPa, x2 = 0.378 | 0.9914
323.15 K, 204.4 kPa, x2 = 0.791 | 0.9921
323.15 K, 212.6 kPa, x2 = 0.619 | 0.9926
323.15 K, 233.4 kPa, x2 = 0.189 | 0.9875
323.15 K, 295.9 kPa, x2 = 0.378 | 0.986
323.15 K, 304.7 kPa, x2 = 0.791 | 0.9877
323.15 K, 316.4 kPa, x2 = 0.619 | 0.9871
323.15 K, 347.1 kPa, x2 = 0.189 | 0.9809
323.15 K, 439.4 kPa, x2 = 0.378 | 0.9783
323.15 K, 453 kPa, x2 = 0.791 | 0.9812
323.15 K, 469.9 kPa, x2 = 0.619 | 0.9793
323.15 K, 514.3 kPa, x2 = 0.189 | 0.971
323.15 K, 650.1 kPa, x2 = 0.378 | 0.967
323.15 K, 671.5 kPa, x2 = 0.791 | 0.9715
323.15 K, 695.4 kPa, x2 = 0.619 | 0.9682
323.15 K, 758.3 kPa, x2 = 0.189 | 0.9564
323.15 K, 956.3 kPa, x2 = 0.378 | 0.9502
323.15 K, 990.6 kPa, x2 = 0.791 | 0.9574
